≈ marks a conversion by molar mass, not a printed value. Calls of active or inactive are those of the source. No cut-off for these calls is given here.
Tests used:
MCF7 [1] = assay: Antimitotic activity in human MCF7 cells assessed as microtubule polymer at twice mitotic block IC50 measured after 20 hrs by immunofluorescence analysis relative to control; type: functional, cell-based
MCF7 [2] = assay: (§1) Antimitotic activity in human MCF7 cells assessed as bipolar cells with uncompressed chromosomes at mitotic block IC50 measured after 20 hrs by immunofluorescence analysis relative to control; type: functional
[3] = as §1; type: functional
MCF7 [4] = assay: Antimitotic activity in human MCF7 cells assessed as decrease in microtubule polymer formation measured after 20 hrs by immunofluorescence analysis relative to control; type: functional, cell-based
[5] = Antifungal activity against Candida glabrata measured after 48 hrs by broth dilution method; type: functional; conditions: Nakaseomyces glabratus
MCF7 [6] = assay: Antimitotic activity in human MCF7 cells assessed as mitotic index measured after 20 hrs by DAPI-staining based fluorescence microscopic analysis; type: functional, cell-based
[7] = Drug level assessed as human hepatic cytochrome P450-mediated compound formation treated with (+/-)phenylahistin; type: ADME
MCF7 [8] = assay: Potentiation of taxotere-induced antitumor activity against human MCF7 cells xenografted in nude mouse assessed as tumor growth inhibition at 7.5 mg/kg, ip qd for 4 days measured on day 7; type: functional, organism-based
[9] = Cytotoxicity against human MDA-MB-231 cells assessed as reduction in cell viability measured after 48 hrs by resazurin dye-based fluorometric analysis; type: functional; conditions: MDA-MB-231, 48 h
[10] = Cytotoxicity against human Jurkat cells; type: functional, cell-based
Candida albicans [11] = assay: Antifungal activity against Candida albicans ATCC 10231 measured after 48 hrs by broth dilution method; type: functional; conditions: ATCC 10231, 48 h
MES-SA [12] = assay: Ratio of IC50 for taxol-sensitive human […] to IC50 for taxol-sensitive human […] pretreated with p-gp inhibitor cyclosporinA followed by compound addition; type: functional
Aspergillus fumigatus [13] = assay: Antifungal activity against Aspergillus fumigatus isolate 2 measured after 48 hrs by broth dilution method; type: functional; conditions: isolate 2, 48 h
[14] = Cytotoxicity against mouse B16F10 cells assessed as reduction in cell viability measured after 48 hrs by resazurin dye-based fluorometric analysis; type: functional; conditions: B16-F10, 48 h
[15] = Cytotoxicity against human OVCAR3 cells assessed as reduction in cell viability measured after 48 hrs by resazurin dye-based fluorometric analysis relative to control; type: functional, OVCAR-3
[16] = Antiproliferative activity against taxol-sensitive human MES-SA cells […]; type: functional, cell-based
HUVEC = assay: Induction of monolayer permeability in HUVEC assessed as colchicin transport at 2 uM measured up to 1 hr; type: functional, cell-based; conditions: Homo sapiens
[17] = Antiproliferative activity against taxol-resistant human MES-SA/Dx5 cells expressing MDR1 mRNA and P-gp; type: functional, cell-based
[18] = Cytotoxicity against human PC3 cells assessed as reduction in cell viability measured after 48 hrs by resazurin dye-based fluorometric analysis relative to control; type: functional, PC-3; design: concentration or dose not given beside the values
[19] = Antiproliferative activity against taxol-sensitive human MES-SA cells pretreated with p-gp inhibitor cyclosporinA followed by compound addition; type: functional, cell-based
[20] = Cytotoxicity against human PC3 cells assessed as reduction in cell viability measured after 48 hrs by resazurin dye-based fluorometric analysis; type: functional; conditions: PC-3, 48 h
[21] = Cytotoxicity against mouse B16F10 cells assessed as reduction in cell viability measured after 48 hrs by resazurin dye-based fluorometric analysis relative to control; type: functional, B16-F10
HL-60 = assay: Ratio of IC50 for human mitoxantrone-sensitive HL60 cells to IC50 for human mitoxantrone-resistant HL60/MX2 cells; type: functional
[22] = Cytotoxicity against human HT-29 cells assessed as reduction in cell viability measured after 48 hrs by resazurin dye-based fluorometric analysis relative to control; type: functional
MDA-MB-231 = assay: Ratio of IC50 for human CCD-27sk cells to IC50 for human MDA-MB-231 cells
HT-29 = assay: Ratio of IC50 for human CCD-27sk cells to IC50 for human HT-29 cells
[23] = Antitumor activity against human HT-29 cells xenografted in nude mouse assessed as tumor growth inhibition at 30 mg/kg, ip administered every third day for 5 days in presence of CPT-11 relative to control; type: functional; conditions: HT-29, ip, 120 h, read-out: TGI
[24] = Antiproliferative activity against human mitoxantrone-resistant HL60/MX2 cells; type: functional, cell-based; conditions: HL-60
[25] = Cytotoxicity against human NCI-H292 cells assessed as reduction in cell viability measured after 48 hrs by resazurin dye-based fluorometric analysis; type: functional; conditions: NCI-H292, 48 h
[26] = Antiproliferative activity against taxol-resistant human MES-SA/Dx5 cells expressing MDR1 mRNA and P-gp pretreated with p-gp inhibitor cyclosporinA followed by compound addition; type: functional, cell-based
[27] = Cytotoxicity against human CCD-27Sk cells assessed as reduction in cell viability measured after 48 hrs by resazurin dye-based fluorometric analysis
NCI-H292 = assay: Ratio of IC50 for human CCD-27sk cells to IC50 for human NCI-H292 cells
Candida albicans [28] = assay: Antifungal activity against Candida albicans 90028 measured after 48 hrs by broth dilution method; type: functional; conditions: Candida albicans, 90028, 48 h
Aspergillus fumigatus [29] = assay: Fungicidal activity against Aspergillus fumigatus isolate 2 measured after 48 hrs by broth dilution method; type: functional; conditions: isolate 2, 48 h
[30] = Cytotoxicity against human OVCAR3 cells assessed as reduction in cell viability measured after 48 hrs by resazurin dye-based fluorometric analysis; type: functional; conditions: OVCAR-3, 48 h
Jurkat = assay: Induction of apoptosis in human Jurkat cells assessed as caspase3 activation; type: functional, cell-based
[31] = Cytotoxicity against human CCD-27Sk cells assessed as reduction in cell viability measured after 48 hrs by resazurin dye-based fluorometric analysis relative to control; conditions: read-out: INH
B16-F10 = assay: Ratio of IC50 for human CCD-27sk cells to IC50 for mouse B16F10 cells
[32] = Cytotoxicity against human HT-29 cells assessed as reduction in cell viability measured after 48 hrs by resazurin dye-based fluorometric analysis; type: functional; conditions: Homo sapiens, HT-29, 48 h
[33] = Cytotoxicity against human NCI-H292 cells assessed as reduction in cell viability measured after 48 hrs by resazurin dye-based fluorometric analysis relative to control; type: functional
MES-SA/Dx5 = assay: Ratio of IC50 for taxol-resistant human MES-SA/Dx5 cells expressing MDR1 mRNA and P-gp to IC50 for taxol-resistant human MES-SA/Dx5 cells expressing MDR1 mRNA and P-gp pretreated with p-gp inhibitor cyclosporinA followed by compound addition; type: functional
[34] = Antiproliferative activity against human mitoxantrone-sensitive HL60 cells; type: functional, cell-based; conditions: HL-60
Aspergillus fumigatus [35] = assay: Antifungal activity against Aspergillus fumigatus isolate 1 measured after 48 hrs by broth dilution method; type: functional; conditions: isolate 1, 48 h
PC-3 = assay: Ratio of IC50 for human CCD-27sk cells to IC50 for human PC3 cells
[36] = Antiproliferative activity against human taxol-sensitive MCF7 cells; type: functional, cell-based
MES-SA [37] = assay: Ratio of IC50 for taxol-sensitive human […] to IC50 for taxol-resistant human MES-SA/DX5 cells expressing MDR1 mRNA and P-gp; type: functional
MCF7 [38] = assay: Ratio of IC50 for human taxol-sensitive MCF7 cells to IC50 for human taxol-resistant MCF7/ADR cells; type: functional
MES-SA [39] = assay: Ratio of EC50 for taxol-resistant human MES-SA/DX5 cells expressing MDR1 mRNA and P-gp to EC50 for taxol-sensitive human MES-SA cells; type: functional
HeLa [40] = assay: Effect on cell cycle progression in human HeLa cells assessed as reduction in 2N cells at 200 nM; type: functional, cell-based
HeLa [41] = assay: Effect on cell cycle progression in human HeLa cells assessed as […] cells at 200 nM; type: functional, cell-based
[42] = Antitumor activity against human MDA-MB-231 cells xenografted in nude mouse assessed as tumor growth inhibition at 7.5 mg/kg, ip qd for 5 days relative to control; type: functional; conditions: MDA-MB-231, ip, 120 h, read-out: TGI
[43] = Antitumor activity against mouse B16F10 cells allografted in nude mouse assessed as mean growth inhibition at 10 mg/kg, iv qd for 5 days relative to control; type: functional, B16-F10; design: scale not given: the % may be the effect or the level left
[44] = Antitumor activity against human DU145 cells xenografted in nude mouse assessed as tumor growth inhibition at […], iv administered every third day measured on day 28 relative to control; type: functional; conditions: DU-145, iv, 672 h, read-out: TGI
[45] = Antitumor activity against human MCF7 cells xenografted in nude mouse assessed as tumor growth inhibition at 7.5 mg/kg, ip qd for 5 days relative to control; type: functional; conditions: 120 h, read-out: TGI
[46] = Antitumor activity against human A549 cells xenografted in nude mouse assessed as tumor growth inhibition at 7.5 mg/kg, ip qd for 5 days relative to control; type: functional; conditions: 120 h, read-out: TGI
[47] = Antitumor activity against human A549 cells xenografted in nude mouse assessed as tumor growth inhibition at […], ip qd for 5 days relative to control; type: functional; conditions: 120 h, read-out: TGI

In the case of `COc1cc2c(c(OC)c1OC)-c1ccc(OC)c(=O)cc1[C@@H](NC(C)=O)CC2` [COLCHICINE], the Activity (MCF7 [1]) is reported as “Active”, the Activity (MCF7 [2]) is reported as “Active” and the Activity [3] is reported as 50%. The Activity (MCF7 [4]) was “Dose-dependent effect”, the MIC [5] was over 128 µg/mL and the inhibition (MCF7 [6]) was “Dose-dependent effect”.

With `CC(C)(c1[nH]cnc1/C=C1\NC(=O)[C@H](Cc2ccccc2)NC1=O)C1CO1` (stereo in doubt) the Drug metabolism [7] was “Metabolite_Detected”.

For `CC(C)(C)c1[nH]cnc1/C=C1\NC(=O)C(Cc2ccccc2)NC1=O` (centres undefined), the TGI (MCF7 [8]) was “Active”, the EC50 [9] was 387 nM and the IC50 [10] was 165 nM. For the same compound, the MIC (Candida albicans [11]) was over 32 µg/mL, the “Ratio IC50” value (MES-SA [12]) was 1.3 and the MIC (Aspergillus fumigatus [13]) was under 0.03 µg/mL. For the same compound, the EC50 [14] was 736 nM, the “inhibition (INH)” value [15] was 37% and the EC50 [16] was 122 to 144 nM. The Activity (HUVEC) was “Active”, the IC50 [17] was 694 to 835 nM and the Activity [18] was 59.5%. For the same compound, the IC50 [19] was 27.4 nM, the EC50 [20] was 174 nM and the “inhibition (INH)” value [21] was 74%. The “Ratio IC50” value (HL-60) was 0.69, the Activity [22] was 88% and the “Ratio IC50” value (MDA-MB-231) was >20 - 100. For the same compound, the “Ratio IC50” value (HT-29) was >20 - 100, the inhibition in vivo at 30 mg/kg [23] was 77.7% and the EC50 [24] was 175 nM. The EC50 [25] was 384 nM, the IC50 [26] was 622 nM and the EC50 [27] was over 20000 nM. The “Ratio IC50” value (NCI-H292) was >20 - 100, the MIC (Candida albicans [28]) was over 32 µg/mL and the MFC (Aspergillus fumigatus [29]) was 0.125 µg/mL (≈ 0.369 µM). For the same compound, the MIC [5] was over 32 µg/mL, the EC50 [30] was over 20000 nM and the Activity (Jurkat) was “Dose-dependent effect”. For the same compound, the cytotoxicity at 48 h [31] was 45%, the “Ratio IC50” value (B16-F10) was >20 - 100 and the EC50 [32] was 255 to 420 nM. The “inhibition (INH)” value [33] was 65%, the “Ratio IC50” value (MES-SA/Dx5) was 0.9 and the EC50 [34] was 255 nM. The MIC (Aspergillus fumigatus [35]) was over 16 µg/mL and the “Ratio IC50” value (PC-3) was >20 - 100.

For `CC(=O)O[C@H]1C(=O)[C@@]2(C)[C@H]([C@H](OC(=O)c3ccccc3)[C@]3(O)C[C@H](OC(=O)[C@H](O)[C@@H](NC(=O)c4ccccc4)c4ccccc4)C(C)=C1C3(C)C)[C@]1(OC(C)=O)CO[C@@H]1C[C@@H]2O` [PACLITAXEL], the IC50 [36] was 2.6 nM, the “Ratio IC50” value (MES-SA [12]) was 0.4 - 0.6 and the “Ratio IC50” value (MES-SA [37]) was >8 - 3000. For the same compound, the EC50 [16] was 4.8 to 13 nM, the IC50 [17] was 100 to 24000 nM and the “Ratio IC50” value (MCF7 [38]) was over 38. The EC50 [19] was 2.8 to 18 nM, the “Ratio EC50” value (MES-SA [39]) was 417 and the Activity (HeLa [40]) was “Active”. The IC50 [26] was 2 to 40 nM, the Activity (HeLa [41]) was “Active” and the inhibition in vivo at 7.5 mg/kg [42] was 53%. It also gave an EC50 [32] of 16.2 nM and an Activity [43] of 35%.

In the case of `CC(=O)O[C@@]12CO[C@@H]1C[C@H](O)[C@@]1(C)C(=O)[C@H](O)C3=C(C)[C@@H](OC(=O)[C@H](O)[C@@H](NC(=O)OC(C)(C)C)c4ccccc4)C[C@@](O)([C@@H](OC(=O)c4ccccc4)[C@H]21)C3(C)C` [DOCETAXEL ANHYDROUS], the TGI (MCF7 [8]) is reported as “Active”, the inhibition in vivo at […] [44] is reported as 44.8% and the inhibition in vivo at 7.5 mg/kg [45] is reported as 12 to 58%. For the same compound, the inhibition in vivo at 7.5 mg/kg [46] was 26% and the inhibition in vivo at […] [47] was 26.1%.

Source: ChEMBL document CHEMBL3881525, “Analogs of dehydrophenylahistins and their therapeutic use” (2007)
